The record followed here is EP1733731A1, “New uses of Glycerol derivatives in particular in cosmetics” (AGRO INDUSTRIE RECHERCHES ET DEVELOPPEMENTS (A.R.D.), priority 2005, dated 2006).

The assay deals with proMMP-3. Description: activation of proMMP-3 by plasmin in cultured dermal fibroblasts (western blot). Type of assay: cell-based. The note with it: 25 µg/mL; 2,5 µg/mL plasmin; Figure 1B-4. Here is the method: • La Figure 1 représente la modulation de l'activation des proMMP-3 (Figures 1A et 1B) et proMMP-1 (Figure 1C) in vitro comme en culture par des extraits glycolipidiques du gluten de blé. • Figure 1A : 100 nM de proMMP-3 (Figure 1A-1) sont incubés avec 65 nM de plasmine en absence (Figure 1A-2) ou en présence de glycolipides (Figure 1A-3 et 4), à la concentration de 50µg/mL pour M1-Sucres (Figure 1A-3) et 25 µg/mL pour ED 23-11 (Figure 1A-4). • Figure 1B : des fibroblastes dermiques sont ensemencés en plaque 24 puits à raison de […] cellules par puits jusque confluence. Après une mise au repos de 18 heures, les cellules sont incubées en présence (Figure 1B-2, 3 et 4) ou non (Figure 1B-1) de 2,5 µg/mL de plasmine ainsi que des glycolipides M1(-Sucres) (Figure 1B-3) et ED 23-11 (Figure 1B-4) aux mêmes concentrations que précédemment. • Figure 1C : des fibroblastes dermiques sont ensemencés en plaque 24 puits à raison de […] cellules par puits jusque confluence. Après une mise au repos de 18 heures, les cellules sont incubées en présence (Figure 1C-2, 3 et 4) ou non (Figure 1C-1) de 2,5 µg/mL de plasmine ainsi que des glycolipides M1(-Sucres) (Figure 1C-3) et ED 23-11 (Figure 1C-4) aux mêmes concentrations que précédemment. Dans l'ensemble des figures 1A, 1B et 1C, la réaction est arrêtée aux temps indiqués par addition de 0,3 mg/ml d'aprotinine. […]

With `CCCCC/C=C\C/C=C\CCCCCCCCOC[C@H](CO[C@@H]1O[C@H](COC(=O)CCCCCCCCCCCCCCC)[C@H](O)[C@H](O)[C@H]1O)OCCCCCCCC/C=C\C/C=C\CCCCC` [ED23-11, 1,2-di-O-linoléyl-3-O-[6'-O-palmitoyl-β-D-galactopyranosyl]-sn-glycérol], the “activation de la proMMP-3” value is given as “inhibition significative”.
